Experimental data: US4645769A, “1-oxa-1-dethia-cephalosporin compounds and antibacterial agent comprising the same” (Merck & Co., Inc., priority 1985, dated 1987)
Structures can show the parent of a compound that is named as a salt.

How the values were obtained:
[1] = test system: Streptococcus faecalis ATCC 8043; assay: Minimum Inhibitory Concentration (MIC), antibacterial spectrum in vitro; format: cell-based; details: Enterococcus faecalis, ATCC8043; Streptococcus faecalis ATCC 8043; read-out: Minimum Inhibitory Concentration (MIC)
[2] = test system: Staphylococcus aureus 209 P JC-1; assay: as above; format: cell-based; details: 209PJC1; Staphylococcus aureus 209 P JC-1; read-out: Minimum Inhibitory Concentration (MIC)
[3] = test system: Pseudomonas aeruginosa MB-3833; assay: as above; format: cell-based; details: MB3833; Pseudomonas aeruginosa MB-3833; read-out: Minimum Inhibitory Concentration (MIC)
Pseudomonas aeruginosa = assay: Antibacterial activity against Pseudomonas aeruginosa (from Table 1); format: cell-based; details: in words
[4] = test system: Citrobacter freundii GN-346; assay: Minimum Inhibitory Concentration (MIC), antibacterial spectrum in vitro; format: cell-based; details: GN346; Citrobacter freundii GN-346; read-out: Minimum Inhibitory Concentration (MIC)
[5] = test system: Esherichia coli NIHJ JC-2; assay: as above; format: cell-based
[6] = test system: Pseudomonas aeruginosa (GN 10362); assay: Efficacy in Mice Infected with Pseudomonas aeruginosa (GN 10362); format: in vivo; details: GN10362, sc, 168 h, Ps. aeruginosa (GN 10362) intraperitoneal infection, mice, single subcutaneous dose one hour after infection, 7 days, read-out: ED 50
From the text: (§1) A systemic infection was produced by intraperitoneal injection of the appropriate pathogen to mice (five male mice in each group, average body weight 20 g), and the mice were received single subcutaneous dose of the compound one hour after the infection.

[7] = test system: Staphylococus aureus (Smith I); assay: Efficacy in Mice Infected with Staphylococus aureus (Smith I); format: in vivo; details: Staphylococcus aureus, sc, 168 h, St. aureus (Smith I) intraperitoneal infection, single subcutaneous dose one hour after infection, 7 days
From the text: as §1

Enterobacter cloacae P99 = assay: Minimum Inhibitory Concentration (MIC), antibacterial spectrum in vitro; format: cell-based; details: P99, read-out: Minimum Inhibitory Concentration (MIC)
[8] = test system: Klebsiella pneumoniae PCI 602; assay: as above; format: cell-based; details: PCI602; Klebsiella pneumoniae PCI 602; read-out: Minimum Inhibitory Concentration (MIC)
[9] = test system: Pseudomonas aeruginosa E-2; assay: as above; format: cell-based; details: E2; Pseudomonas aeruginosa E-2; read-out: Minimum Inhibitory Concentration (MIC)
Proteus morganii 1510 = assay: as above; format: cell-based; details: Morganella morganii; Proteus morganii 1510; read-out: Minimum Inhibitory Concentration (MIC)
[10] = test system: Pseudomonas aeruginosa RPL-11; assay: as above; format: cell-based; details: RPL11; Pseudomonas aeruginosa RPL-11; read-out: Minimum Inhibitory Concentration (MIC)
[11] = Concentration in Blood Serum after subcutaneous dosing (bioassay using Escherichia coli); format: in vivo; details: mouse, sc, 25 mg/Kg subcutaneously, mice
Experimental: The concentration of the compound in the serum was determined by bioassay using Escherichia coli as assay microorganism.

Esherichia coli TEM DC-2 = assay: Minimum Inhibitory Concentration (MIC), antibacterial spectrum in vitro; format: cell-based; details: read-out: Minimum Inhibitory Concentration (MIC)
[12] = test system: Salmonella typhimurium LT-2; assay: as above; format: cell-based; details: Salmonella enterica; Salmonella typhimurium LT-2; read-out: Minimum Inhibitory Concentration (MIC)

CC1OC2C(NC(=O)C(=NOC(C)(C)C(=O)O)c3csc(N)n3)C(=O)N2C(C(=O)[O-])=C1CSc1cc[n+](C)cc1 [Compound 1, (6R,7R)-7-((Z)-2-(2-Aminothiazole-4-yl)-2-(2-carboxyprop-2-oxyimino)acetamide)-(2S)-2-methyl-3-(1-methyl-pyridinium-4-ylthiomethyl)-1-oxa-1-oxa-1-dethiaceph-3-em-4-carboxylate (Sodium Salt)]
MIC [1]: 50 µg/mL | MIC [2]: 1.56 µg/mL | MIC [3]: 3.13 µg/mL | effectiveness against Pseudomonas aeruginosa (Pseudomonas aeruginosa): effective against Pseudomonas aeruginosa | MIC [4]: 0.78 µg/mL | MIC [5]: 0.2 µg/mL | ED50 [6]: 0.16 mg/kg | ED50 [7]: 0.028 mg/kg | MIC (Enterobacter cloacae P99): 1 µg/mL | MIC [8]: 0.2 µg/mL | MIC [9]: 3.13 µg/mL | MIC (Proteus morganii 1510): 0.39 µg/mL | MIC [10]: 4 µg/mL | concentration at 0.5 h ([11]; 1/2 hour): 10600 ng/mL | concentration at 0.25 h ([11]; 1/4 hour): 18500 ng/mL | concentration at 5 min ([11]; 1/12 hour): 14500 ng/mL | concentration at 1 h ([11]; 1 hour): 2200 ng/mL | MIC (Esherichia coli TEM DC-2): 0.5 µg/mL | MIC [12]: 0.05 µg/mL
